Source: the NIST ThermoML archive (doi:10.1021/je7006549)

Experiment: mn = molality of the nth substance listed, in mol/kg
Details: 101 kPa, Liquid

CC1=CC(=O)c2ccccc2C1=O [2-methyl-1,4-naphthalenedione] + CCc1ccccc1
Details	mass density [kg/m3]	viscosity [mPa·s]
303.15 K, m1 = 0.0451	859.9	0.6083
303.15 K, m1 = 0.0903	861.8	0.6164
303.15 K, m1 = 0.1354	863.7	0.6218
303.15 K, m1 = 0.1805	865.6	0.6317
303.15 K, m1 = 0.2256	867.5	0.6333
303.15 K, m1 = 0.271	869.4	0.6361
308.15 K, m1 = 0.0451	855.4	0.5735
308.15 K, m1 = 0.0903	857.3	0.5794
308.15 K, m1 = 0.1354	859.2	0.5853
308.15 K, m1 = 0.1805	861.1	0.5893
308.15 K, m1 = 0.2256	863	0.5948
308.15 K, m1 = 0.271	864.9	0.5991
313.15 K, m1 = 0.0451	851.4	0.5439
313.15 K, m1 = 0.0903	853.3	0.5484
313.15 K, m1 = 0.1354	855.2	0.5543
313.15 K, m1 = 0.1805	857.1	0.557
313.15 K, m1 = 0.2256	859	0.5611
313.15 K, m1 = 0.271	860.9	0.5673
318.15 K, m1 = 0.0451	846.6	0.5104
318.15 K, m1 = 0.0903	848.5	0.5148
318.15 K, m1 = 0.1354	850.4	0.5192
318.15 K, m1 = 0.1805	852.3	0.5241
318.15 K, m1 = 0.2256	854.2	0.5283
318.15 K, m1 = 0.271	856.1	0.533
323.15 K, m1 = 0.0451	842.4	0.4832
323.15 K, m1 = 0.0903	844.3	0.4881
323.15 K, m1 = 0.1354	846.2	0.4937
323.15 K, m1 = 0.1805	848.1	0.4969
323.15 K, m1 = 0.2256	850	0.5015
323.15 K, m1 = 0.271	851.9	0.5054
328.15 K, m1 = 0.0451	837.8	0.4615
328.15 K, m1 = 0.0903	839.7	0.4648
328.15 K, m1 = 0.1354	841.6	0.4715
328.15 K, m1 = 0.1805	843.5	0.474
328.15 K, m1 = 0.2256	845.4	0.4758
328.15 K, m1 = 0.271	847.3	0.4806
333.15 K, m1 = 0.0451	833.5	0.4405
333.15 K, m1 = 0.0903	835.4	0.444
333.15 K, m1 = 0.1354	837.3	0.4475
333.15 K, m1 = 0.1805	839.2	0.451
333.15 K, m1 = 0.2256	841.1	0.4546
333.15 K, m1 = 0.271	843	0.4581

Cc1ccccc1C [1,2-dimethylbenzene] + CC1=CC(=O)c2ccccc2C1=O
m2 = 0
Details	mass density [kg/m3]	viscosity [mPa·s]
303.15 K	872.1	0.7404
308.15 K	867.7	0.69
313.15 K	864	0.6451
318.15 K	859.7	0.6117
323.15 K	855.5	0.5711
328.15 K	851.2	0.5433
333.15 K	847.1	0.5105

Cc1cccc(C)c1 [1,3-dimethylbenzene] + CC1=CC(=O)c2ccccc2C1=O
m2 = 0
Details	mass density [kg/m3]	viscosity [mPa·s]
303.15 K	855.6	0.549
308.15 K	851.1	0.5201
313.15 K	846.9	0.4967
318.15 K	842.4	0.4817
323.15 K	838.3	0.444
328.15 K	833.7	0.435
333.15 K	829.6	0.413

c1ccccc1 [benzene] + CC1=CC(=O)c2ccccc2C1=O
m2 = 0
Details	mass density [kg/m3]	viscosity [mPa·s]
303.15 K	868	0.564
308.15 K	862.2	0.5232
313.15 K	857	0.5001
318.15 K	851.6	0.4714
323.15 K	846.3	0.4397
328.15 K	840.7	0.4145
333.15 K	835.4	0.3932

CC1=CC(=O)c2ccccc2C1=O [2-methyl-1,4-naphthalenedione] + Cc1ccccc1C
Details	mass density [kg/m3]	viscosity [mPa·s]
303.15 K, m1 = 0.0436	873.9	0.7432
303.15 K, m1 = 0.0884	875.8	0.7496
303.15 K, m1 = 0.1326	877.7	0.7581
303.15 K, m1 = 0.1767	879.6	0.7658
303.15 K, m1 = 0.2215	881.6	0.7765
303.15 K, m1 = 0.2656	883.5	0.7833
308.15 K, m1 = 0.0436	869.5	0.6988
308.15 K, m1 = 0.0884	871.4	0.7021
308.15 K, m1 = 0.1326	873.3	0.7081
308.15 K, m1 = 0.1767	875.2	0.7159
308.15 K, m1 = 0.2215	877.2	0.726
308.15 K, m1 = 0.2656	879.1	0.7348
313.15 K, m1 = 0.0436	865.8	0.6532
313.15 K, m1 = 0.0884	867.7	0.6592
313.15 K, m1 = 0.1326	869.6	0.6687
313.15 K, m1 = 0.1767	871.5	0.6742
313.15 K, m1 = 0.2215	873.5	0.681
313.15 K, m1 = 0.2656	875.4	0.6888
318.15 K, m1 = 0.0436	861.5	0.6212
318.15 K, m1 = 0.0884	863.4	0.6256
318.15 K, m1 = 0.1326	865.3	0.6319
318.15 K, m1 = 0.1767	867.2	0.6407
318.15 K, m1 = 0.2215	869.2	0.6473
318.15 K, m1 = 0.2656	871.1	0.6525
323.15 K, m1 = 0.0436	857.3	0.5792
323.15 K, m1 = 0.0884	859.2	0.5832
323.15 K, m1 = 0.1326	861.1	0.5905
323.15 K, m1 = 0.1767	863	0.5967
323.15 K, m1 = 0.2215	865	0.6011
323.15 K, m1 = 0.2656	866.9	0.6087
328.15 K, m1 = 0.0436	853	0.5498
328.15 K, m1 = 0.0884	854.9	0.5531
328.15 K, m1 = 0.1326	856.8	0.5601
328.15 K, m1 = 0.1767	858.7	0.5665
328.15 K, m1 = 0.2215	860.7	0.5706
328.15 K, m1 = 0.2656	862.6	0.5773
333.15 K, m1 = 0.0436	848.9	0.5177
333.15 K, m1 = 0.0884	850.8	0.5202
333.15 K, m1 = 0.1326	852.7	0.5277
333.15 K, m1 = 0.1767	854.6	0.5309
333.15 K, m1 = 0.2215	856.6	0.5358
333.15 K, m1 = 0.2656	858.5	0.5412
